According to US3988456A, “1,2-Diphenylethanolamine derivatives and their salts and the preparation thereof” (Dainippon Pharmaceutical Co., Ltd., priority 1974, dated 1976):
Counter-ions that a name gives are not always drawn.

How the values were obtained:
Male guinea-pigs = assay: Anti-tussive activity (coughs by mechanical stimulation); format: in vivo; settings: intraperitoneal; for anti-tussive activity: dose of 5-40 mg/kg; for anti-tussive activity compared with codeine phosphate: vs codeine phosphate
Method: 2. Anti-tussive activity (cf. K. Takagi, H. Fukuda and K. Yano, Yakugakuzasshi, Vol. 80, page 1497, 1960)
Male guinea-pigs, weighing 350 to 450 g, were used. Coughs were caused by successive mechanical stimulations with whiskers, and anti-tussive effects were evaluated by all or none of the cough. The Test Compounds F and G were intraperitoneally injected.

male mice of ddN strain = assay: Analgesic activity: D'Amour-Smith method (thermal pain); format: in vivo; settings: response time prolonged more than 100 %; for Analgesic ED50 value, D'Amour-Smith method: s.c.; for ED50: Mus musculus, sc
Method: i. D'Amour-Smith method (cf. F. E. D'Amour and D. L. Smith, J. Pharmacol., Vol. 72, page 74, 1941)
Thermal pain was induced by radiating heat light on the tail blacked with a black ink of male mice of ddN strain, weighing 9 to 12 g, using the modified apparatus of D'Amour-Smith. The analgesic ED50 -value was calculated from the number of positive animals showing the response time prolonged more than 100 % compared with each before value.

female mice = assay: Analgesic activity: Phenylquinone method (chemical pain); format: in vivo, mice (ddN strain); settings: drugs given 30 minutes before i.p. phenylquinone; for ED50: Mus musculus, po
Method: ii. Phenylquinone method (cf. E. Siegmund, R. Cadmus and G. Lu, Proc. Soc. Exptl. Biol. Med., Vol. 95, page 729, 1957)
Chemical pain was induced by an intraperitoneal injection of 0.1 ml/10 g body weight of 0.03 % phenylquinone in 5 % aqueous ethanol in female mice, weighing 18 to 22 g of ddN strain. Drugs were given 30 minutes before challenge of phenylquinone.

Row | Structure (SMILES) | ED50 (female mice) [mg/kg] | ED50 (male mice of ddN strain) [mg/kg] | also measured
1 | COc1ccc(CN2CCN([C@H](c3ccccc3)[C@@H](O)c3cccc(C)c3)CC2)cc1 (relative stereo) [Test Compound G, dl-erythro-1-(m-tolyl)-2-phenyl-2-[4-(p-methoxybenzyl)piperazine-1-yl]ethanol dihydrochloride] | – | – | anti-tussive activity (Male guinea-pigs): excellent anti-tussive activity in a dose of 5-40 mg/kg; anti-tussive activity compared with codeine phosphate (Male guinea-pigs): comparable with that of codeine phosphate
2 | CN1CCN([C@H](c2ccccc2)[C@@H](O)c2ccccc2)CC1 (relative stereo) [compound 1, dl-Erythro-1,2-diphenyl-2-(4-methylpiperazin-1-yl)ethanol dihydrochloride, reference compound] | – | – | Analgesic ED50 value, D'Amour-Smith method (male mice of ddN strain): inactive
3 | COc1ccc(CN2CCN([C@H](c3ccccc3)[C@@H](O)c3ccc(Cl)cc3)CC2)cc1 (relative stereo) [Test Compound A, dl-Erythro-1-(p-chlorophenyl)-2-phenyl-2-[4-(p-methoxybenzyl)piperazin-1-yl]ethanol dihydrochloride] | 49.9 | – | –
4 | COc1ccc(CN2CCN([C@H](c3ccccc3C)[C@@H](O)c3ccccc3)CC2)cc1 (relative stereo) [Test Compound E, dl-Erythro-1-phenyl-2-(o-tolyl)-2-[4-(p-methoxybenzyl)-piperazin-1-yl]ethanol dihydrochloride] | 30.2 | 65.2 | –
5 | Cl.Cl.O=C(c1ccccc1)C(c1ccccc1)N1CCN(Cc2ccccc2)CC1 (racemic) [compound 2, dl-2-Phenyl-2-(4-benzylpiperazin-1-yl)acetophenone dihydrochloride, reference compound] | – | > 320 | –
6 | COc1ccc(CN2CCN(C(c3ccccc3)C(O)c3ccccc3)CC2)cc1.Cl.Cl (stereo not drawn) [Test Compound F, d-Erythro-1,2-diphenyl-2-[4-(p-methoxybenzyl)piperazin-1-yl]ethanol dihydrochloride] | – | – | Analgesic ED50 value, Phenylquinone method (female mice; p.o.): 63.2 mg/kg; anti-tussive activity (Male guinea-pigs): excellent anti-tussive activity in a dose of 5-40 mg/kg; anti-tussive activity compared with codeine phosphate (Male guinea-pigs): more potent than that of codeine phosphate; Analgesic ED50 value, D'Amour-Smith method (male mice of ddN strain): 37.2 mg/kg
7 | COc1ccc(CN2CCN([C@H](c3ccc(C)cc3)[C@@H](O)c3ccc(C)cc3)CC2)cc1 (relative stereo) [Test Compound D, dl-Erythro-1-(p-tolyl)-2-(p-tolyl)-2-[4-(p-methoxybenzyl)piperazin-1-yl]ethanol dihydrochloride] | 55.6 | 98.6 | –
8 | COc1ccc(CN2CCN([C@H](c3ccccc3Cl)[C@@H](O)c3ccccc3)CC2)cc1 (relative stereo) [Test Compound B, dl-Erythro-1-phenyl-2-(o-chlorophenyl)-2-[4-(p-methoxybenzyl)piperazin-1-yl]ethanol dihydrochloride] | 45.1 | 55.5 | –
9 | COc1ccc(CN2CCN([C@H](c3ccccc3OC)[C@@H](O)c3ccccc3)CC2)cc1 (relative stereo) [Test Compound C, dl-Erythro-1-phenyl-2-(o-methoxyphenyl)-2-[4-(p-methoxybenzyl)piperazin-1-yl]ethanol dihydrochloride] | 28.6 | 32.5 | –
10 | Cc1c(N(C)C)c(=O)n(-c2ccccc2)n1C [compound 3, Aminopyrine, reference compound] | 53.3 | 233 | –
